T1: ZmGPDH1 (Zea mays, UniProt A0A345VNI6)
T1 construct: gene GPDH1; full-length CDS (458 residues, 51 kDa; 1377 bp) in pET32a(+) NcoI/XhoI, 6xHis fusion of about 65 kDa, E. coli Rosetta (DE3), Ni-NTA
T1 sequence (A0A345VNI6 1-458): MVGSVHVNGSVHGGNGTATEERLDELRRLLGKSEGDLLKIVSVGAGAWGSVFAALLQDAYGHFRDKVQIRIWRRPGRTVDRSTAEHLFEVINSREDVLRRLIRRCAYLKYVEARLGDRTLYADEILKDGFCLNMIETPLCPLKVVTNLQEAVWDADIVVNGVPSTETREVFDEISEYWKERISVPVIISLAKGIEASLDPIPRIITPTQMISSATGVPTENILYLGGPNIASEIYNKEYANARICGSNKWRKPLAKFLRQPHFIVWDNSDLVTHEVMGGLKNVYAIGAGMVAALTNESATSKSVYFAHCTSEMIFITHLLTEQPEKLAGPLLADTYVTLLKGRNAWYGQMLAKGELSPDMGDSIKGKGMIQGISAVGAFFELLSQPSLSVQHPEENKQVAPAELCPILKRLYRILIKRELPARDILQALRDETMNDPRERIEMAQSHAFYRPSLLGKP

B1: ZmGPDH1 (Zea mays subsp. mays) (protein)
chain: T1 sequence (A0A345VNI6 1-458)
notes: full-length CDS (458 residues, 51 kDa; 1377 bp) in pET32a(+) NcoI/XhoI, 6xHis fusion of about 65 kDa, E. coli Rosetta (DE3), Ni-NTA

What was measured:
ZmGPDH1 = target: T1, ZmGPDH1; experiment: GPDH activity with and without NADH; assay type: biochemical; details: 4 mM DHAP, 0.2 mM NADH, 100 mM HEPES pH 6.9 (general assay)
purified protein = substrate: O=C(CO)COP(=O)(O)O; experiment: purified protein; assay type: biochemical, Zea mays; details: DHAP reduction, 0.2 mM NADH, 100 mM HEPES pH 6.9 (general assay)

| Molecule | GPDH activity with and without NADH (ZmGPDH1) | Km (purified protein) [µM] |
| --- | --- | --- |
| NC(=O)C1=CN([C@@H]2O[C@H](COP(=O)(O)OP(=O)(O)OC[C@H]3O[C@@H](n4cnc5c(N)ncnc54)[C@H](O)[C@@H]3O)[C@@H](O)[C@H]2O)C=CC1 [NADH] | addition of NADH strongly stimulated the enzyme activity |  |
| B1 |  | 2750 |

From publication PMC6327487, “A cytosolic NAD^+-dependent GPDH from maize (ZmGPDH1) is involved in conferring salt and osmotic stress tolerance” (BMC Plant Biology, 2019)
